What was measured:
Format in all cases: in vivo
[1] = tested on: perennial ryegrass; test: Turf tolerance field study, perennial ryegrass, Indiana 2004; conditions: 21 Days After Treatment, g ai/Ha: penoxsulam 35, imazaquin 104, bispyribac-sodium 75, trifloxysulfuron-sodium 9.2, metsulfuron-methyl 10.4; for Color: 0 = brown to dead turf, 10 = lush green; for Injury: 0 = no visible injury, 10 = dead turf
Experimental: (§1) Turf tolerance studies were conducted in monoculture stands of perennial ryegrass and tall fescue. Replicated trials, containing a minimum of three replications and having individual plots ranging in size from 25 to 50 ft. sq (2.3 to 4.6 square meters), were initiated in the late spring when turf was actively growing. […] Natural rainfall and supplemental irrigation, fertilizer, fungicides and insecticides were used to maintain healthy turf throughout the study period. Turf tolerance evaluations were made weekly for 8 weeks after application. Evaluations compared treated and untreated plot areas and consisted of one or all of the following evaluations: 1) visual estimate of turf injury made on a 0 to 10 scale with 0 indicating no visible injury symptoms, 10 being dead turf and 3 or less being commercially acceptable; 2) visual estimate of turf color made on a 0 to 10 scale with 0 being brown to dead turf, 10 being a lush green turf of highest quality and 6.5 being commercially acceptable; 3) visual estimate of turf density made on a 0 to 100 scale with 0 being bare ground, 100 being a thick solid stand of highest quality and 90 percent density being commercially acceptable; 4) visual estimate of turf quality made on a 0 to 10 scale with 0 being brown to dead turf, 10 being a lush green turf of highest quality and 6.5 being commercially acceptable.

[2] = tested on: tall fescue; test: Turf tolerance field study, tall fescue, Indiana 2004; conditions: 14 Days After Treatment, g ai/Ha: penoxsulam 35, imazaquin 104, bispyribac-sodium 75, trifloxysulfuron-sodium 9.2, metsulfuron-methyl 10.4; for Color: 0 = brown to dead turf, 10 = lush green; for Injury: 0 = no visible injury, 10 = dead turf
Experimental: as §1

[3] = tested on: white clover, Trifolium repens L. (TRFRE); test: Postemergent weed control field study, Pennsylvania 2004, TRFRE; conditions: g ai/Ha: penoxsulam 35, imazaquin 104, bispyribac-sodium 75, trifloxysulfuron-sodium 9.2, metsulfuron-methyl 10.4; for Percent Weed Control TRFRE 29DAA: 29 Days After Application; for Percent Weed Control TRFRE 56DAA: 56 Days After Application
From the text: (§2) The ALS inhibiting herbicides are useful in controlling broadleaf weeds and sedges in turfgrass. They are particularly effective against most important weeds in this application, viz., white clover, Trifolium repens L. (TRFRE); buckhorn plantain, Plantago lanceolata L. (PLALA); dandelion, Taraxacum officinale (TAROF); broadleaf plantain, Plantago major L. (PLAMA); ground ivy, Glechoma hederacea L. (GLEHE); common lespedeza, Lespedeza striata (LESST); pennywort (dollarweed), Hydrocotyle spp (HYDSS); Virginia buttonweed, Diodia virginiana L. (DIQVI) English daisy, Bellis perennis L. (BELPE); annual bluegrass, Poa annua (POANN); and yellow nutsedge, Cypres esculentus L. (CYPES).
(§3) Field studies were conducted in established turfgrass sites containing a natural population of target broadleaf weeds. Replicated trials, containing a minimum of three replications and having individual plots ranging in size from 25 to 50 ft. sq (2.3 to 4.6 square meters), were initiated in the late spring when turf and weeds were actively growing. […] Applications were made in the early morning when dew was present. Natural rainfall and supplemental irrigation were used to maintain healthy turf and active weed growth throughout the study period. Control of each weed species in the study site was made at approximately 2, 4 and 8 weeks after treatment. Control was determined visually by comparing treated and untreated weeds and scored on a 0 to 100 percent scale where 0 corresponds to no control and 100 corresponds to complete kill.

[4] = tested on: buckhorn plantain, Plantago lanceolata L. (PLALA); test: Postemergent weed control field study, Pennsylvania 2004, PLALA; conditions: g ai/Ha: penoxsulam 35, imazaquin 104, bispyribac-sodium 75, trifloxysulfuron-sodium 9.2, metsulfuron-methyl 10.4; for Percent Weed Control PLALA 29DAA: 29 Days After Application; for Percent Weed Control PLALA 56DAA: 56 Days After Application
From the text: as §2, §3

[5] = tested on: annual bluegrass, Poa annua (POANN); test: Postemergent weed control field study, Pennsylvania 2004, POANN; conditions: g ai/Ha: penoxsulam 35, imazaquin 104, bispyribac-sodium 75, trifloxysulfuron-sodium 9.2, metsulfuron-methyl 10.4; for Percent Weed Control POANN 29DAA: 29 Days After Application; for Percent Weed Control POANN 56DAA: 56 Days After Application
From the text: as §2
(§4) Field studies were conducted in established turfgrass sites containing a natural population of target broadleaf weeds. Replicated trials, containing a minimum of three replications and having individual plots ranging in size from 25 to 50 ft. sq (2.3 to 4.6 square meters), were initiated in the late spring when turf and weeds were actively growing. Granule treatments were uniformly applied to individual plots using a common hand-shaker method. Applications were made in the early morning when dew was present. Natural rainfall and supplemental irrigation were used to maintain healthy turf and active weed growth throughout the study period. Control of each weed species in the study site was made at approximately 2, 4 and 8 weeks after treatment. Control was determined visually by comparing treated and untreated weeds and scored on a 0 to 100 percent scale where 0 corresponds to no control and 100 corresponds to complete kill.

[6] = tested on: perennial ryegrass; test: Perennial ryegrass turf quality field study, Pennsylvania 2004; conditions: in vivo
Experimental: as §1

[7] = tested on: dandelion, Taraxacum officinale (TAROF); test: Postemergent weed control field study, Pennsylvania 2004, TAROF; conditions: Liquid formulation, g ai/Ha: penoxsulam 35, imazaquin 104, bispyribac-sodium 75, trifloxysulfuron-sodium 9.2, metsulfuron-methyl 10.4; for Percent Weed Control TAROF 29DAA: 29 Days After Application; for Percent Weed Control TAROF 56DAA: 56 Days After Application
[8] = tested on: dandelion, Taraxacum officinale (TAROF); test: as above; conditions: Granule formulation, g ai/Ha: penoxsulam 35, imazaquin 104, bispyribac-sodium 75, trifloxysulfuron-sodium 9.2, metsulfuron-methyl 10.4; for Percent Weed Control TAROF 29DAA: 29 Days After Application; for Percent Weed Control TAROF 56DAA: 56 Days After Application
From the text: as §2, §4

| SMILES | Color ([1]; Granule formulation) | Injury ([1]; Granule formulation) | Color ([1]; Liquid formulation) | Injury ([1]; Liquid formulation) | Color ([2]; Granule formulation) | Injury ([2]; Granule formulation) | Color ([2]; Liquid formulation) | Injury ([2]; Liquid formulation) | Percent Weed Control TRFRE 29DAA ([3]; Granule formulation) [%] | Percent Weed Control TRFRE 56DAA ([3]; Granule formulation) [%] | Percent Weed Control TRFRE 29DAA ([3]; Liquid formulation) [%] | Percent Weed Control TRFRE 56DAA ([3]; Liquid formulation) [%] | Percent Weed Control PLALA 29DAA ([4]; Granule formulation) [%] | Percent Weed Control PLALA 56DAA ([4]; Granule formulation) [%] | Percent Weed Control PLALA 29DAA ([4]; Liquid formulation) [%] | Percent Weed Control PLALA 56DAA ([4]; Liquid formulation) [%] | Percent Weed Control POANN 29DAA ([5]; Granule formulation) [%] | Percent Weed Control POANN 56DAA ([5]; Granule formulation) [%] | Percent Weed Control POANN 29DAA ([5]; Liquid formulation) [%] | Percent Weed Control POANN 56DAA ([5]; Liquid formulation) [%] | further results |
| --- | --- | --- | --- | --- | --- | --- | --- | --- | --- | --- | --- | --- | --- | --- | --- | --- | --- | --- | --- | --- | --- |
| COc1cnc(OC)n2nc(NS(=O)(=O)c3c(OCC(F)F)cccc3C(F)(F)F)nc12 [Penoxsulam, penoxsulam] | 8.3 0-10 Scale | 1.5 0-10 Scale | 6.5 0-10 Scale | 4.3 0-10 Scale | 9.0 0-10 Scale | 0.3 0-10 Scale | 7.8 0-10 Scale | 3.0 0-10 Scale | 98.3 | 83.9 | 100.0 | 98.7 | 73.3 | 43.3 | 41.7 | 70.6 | 0.0 | 13.7 | 4.4 | 31.1 | Turf Quality 36 DAA [6]: 10.0 0 to 10 scale; Percent Weed Control TAROF 29DAA [7]: 44.4%; Percent Weed Control TAROF 56DAA [7]: 11.1%; Percent Weed Control TAROF 29DAA [8]: 57.8%; Percent Weed Control TAROF 56DAA [8]: 34.4% |
| COC(=O)c1ccccc1S(=O)(=O)NC(=O)Nc1nc(C)nc(OC)n1 [Metsulfuron-methyl, metsulfuron-methyl] | 6.5 0-10 Scale | 4.5 0-10 Scale | 6.0 0-10 Scale | 6.0 0-10 Scale | 8.8 0-10 Scale | 0.8 0-10 Scale | 6.8 0-10 Scale | 4.3 0-10 Scale | 93.9 | 93.9 | 95.8 | 100.0 | 58.3 | 85.0 | 97.7 | 78.9 | 32.2 | 31.1 | 39.2 | 17.5 | Turf Quality 36 DAA [6]: 8.3 0 to 10 scale; Percent Weed Control TAROF 29DAA [7]: 99.1%; Percent Weed Control TAROF 56DAA [7]: 97.4%; Percent Weed Control TAROF 29DAA [8]: 87.2%; Percent Weed Control TAROF 56DAA [8]: 67.2% |

From US7799343B2, “Safer control of broadleaf weeds in turf with granular formulations of ALS inhibiting herbicides” (priority 2006, dated 2010)
